Measurements reported in PubChem BioAssay (NCI).
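GI50 = concentration required for 50% inhibition of growth. TGI: total growth inhibition.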

Assays:
Experiment in all cases: DTP human tumour cell line panel, 384-well format
[1] = tested on: 786-0 renal
[2] = tested on: A498 renal
[3] = tested on: A549 NSCLC
[4] = tested on: ACHN renal
[5] = tested on: BT-549 breast
[6] = tested on: CAKI-1 renal
[7] = tested on: CCRF-CEM leukemia
[8] = tested on: COLO 205 colon
[9] = tested on: DU-145 prostate
[10] = tested on: EKVX NSCLC
[11] = tested on: HCC-2998 colon
[12] = tested on: HCT-116 colon
[13] = tested on: HCT-15 colon
[14] = tested on: HOP-62 NSCLC
[15] = tested on: HOP-92 NSCLC
[16] = tested on: HS 578T breast
[17] = tested on: HT29 colon
[18] = tested on: IGROV1 ovarian
[19] = tested on: K-562 leukemia
[20] = tested on: KM12 colon
[21] = tested on: LOX IMVI melanoma
[22] = tested on: M14 melanoma
[23] = tested on: MALME-3M melanoma
[24] = tested on: MCF7 breast
[25] = tested on: MDA-MB-231 breast
[26] = tested on: MDA-MB-435 melanoma
[27] = tested on: MDA-MB-468 breast
[28] = tested on: MOLT-4 leukemia
[29] = tested on: NCI-H226 lung
[30] = tested on: NCI-H23 lung
[31] = tested on: NCI-H322M lung
[32] = tested on: NCI-H460 NSCLC
[33] = tested on: NCI-H522 lung
[34] = tested on: NCI/ADR-RES ovarian
[35] = tested on: OVCAR-3 ovarian
[36] = tested on: OVCAR-4 ovarian
[37] = tested on: OVCAR-5 ovarian
[38] = tested on: OVCAR-8 ovarian
[39] = tested on: PC-3 prostate
[40] = tested on: RPMI-8226 leukemia
[41] = tested on: RXF 393 renal
[42] = tested on: SF-268 CNS
[43] = tested on: SF-295 CNS
[44] = tested on: SF-539 CNS
[45] = tested on: SK-MEL-28 melanoma
[46] = tested on: SK-MEL-5 melanoma
[47] = tested on: SK-OV-3 ovarian
[48] = tested on: SN12C renal
[49] = tested on: SNB-19 CNS
[50] = tested on: SNB-75 CNS
[51] = tested on: SR leukemia
[52] = tested on: SW-620 colon
[53] = tested on: T-47D breast
[54] = tested on: TK-10 renal
[55] = tested on: U251 glioblastoma
[56] = tested on: UACC-257 melanoma
[57] = tested on: UO-31 renal

## COc1cccc2c1ccc1nc3cccc(C(=O)N[C@H](C)CN(C)C)c3nc12
[1]
  GI50: 57.5 nM
  TGI: 861 nM
[2]
  GI50: 51.1 nM
  TGI: 384 nM
[3]
  GI50: 42.9 nM
  TGI: 904 nM
[4]
  GI50: 28.3 nM
  TGI: 243 nM
[5]
  GI50: 125 nM
  TGI: 268 nM
[6]
  GI50: 37.3 nM
  TGI: 2720 nM
[7]
  GI50: 42.3 nM
  TGI: 160 nM
[8]
  GI50: 12.8 nM
  TGI: 99.9 nM
[9]
  GI50: 69.2 nM
  TGI: 524 nM
[10]
  GI50: 156 nM
  TGI: 380 nM
[11]
  GI50: 41.4 nM
  TGI: 162 nM
[12]
  GI50: 35.3 nM
  TGI: 1080 nM
[13]
  GI50: 41.3 nM
  TGI: 187 nM
[14]
  GI50: 56 nM
  TGI: 231 nM
[15]
  GI50: 92 nM
  TGI: 1620 nM
[16]
  GI50: 141 nM
  TGI: 289 nM
[17]
  GI50: 103 nM
  TGI: 11800 nM
[18]
  GI50: 61.9 nM
  TGI: 609 nM
[19]
  GI50: 45.4 nM
  TGI: 156 nM
[20]
  GI50: 84.7 nM
  TGI: 881 nM
[21]
  GI50: 45.9 nM
  TGI: 155 nM
[22]
  GI50: 101 nM
  TGI: 225 nM
[23]
  GI50: 28.3 nM
  TGI: 68 nM
[24]
  GI50: 46.7 nM
  TGI: 1100 nM
[25]
  GI50: 110 nM
  TGI: 393 nM
[26]
  GI50: 106 nM
  TGI: 229 nM
[27]
  GI50: 23.8 nM
  TGI: 63.9 nM
[28]
  GI50: 15.5 nM
  TGI: 29.1 nM
[29]
  GI50: 73.4 nM
  TGI: 340 nM
[30]
  GI50: 91.5 nM
  TGI: 216 nM
[31]
  GI50: 115 nM
  TGI: 361 nM
[32]
  GI50: 34.4 nM
  TGI: 112 nM
[33]
  GI50: 102 nM
  TGI: 278 nM
[34]
  GI50: 55.2 nM
  TGI: 215 nM
[35]
  GI50: 72.9 nM
  TGI: 292 nM
[36]
  GI50: 130 nM
  TGI: 388 nM
[37]
  GI50: 127 nM
  TGI: 12200 nM
[38]
  GI50: 96.8 nM
  TGI: 273 nM
[39]
  GI50: 142 nM
  TGI: 603 nM
[40]
  GI50: 27.1 nM
  TGI: 74.6 nM
[41]
  GI50: 111 nM
  TGI: 242 nM
[42]
  GI50: 63.5 nM
  TGI: 228 nM
[43]
  GI50: 37.6 nM
  TGI: 221 nM
[44]
  GI50: 52.8 nM
  TGI: 174 nM
[45]
  GI50: 123 nM
  TGI: 291 nM
[46]
  GI50: 35.3 nM
  TGI: 90.4 nM
[47]
  GI50: 85 nM
  TGI: 430 nM
[48]
  GI50: 77.4 nM
  TGI: 249 nM
[49]
  GI50: 75.2 nM
  TGI: 1050 nM
[50]
  GI50: 111 nM
  TGI: 238 nM
[51]
  TGI: 20.4 nM
[52]
  GI50: 29.9 nM
  TGI: 290 nM
[53]
  GI50: 117 nM
  TGI: 315 nM
[54]
  GI50: 90.5 nM
  TGI: 554 nM
[55]
  GI50: 57.8 nM
  TGI: 311 nM
[56]
  GI50: 104 nM
  TGI: 230 nM
[57]
  GI50: 56.1 nM
  TGI: 398 nM
